Measured values from ChEMBL document CHEMBL3988442, “University of Dundee, Small-Polar-MMV Screening Library” (2021).
Several values for one entry are separate records, joined by “and”; a condition that tells them apart may be missing. Equal values may be shown once.

Tests used:
[1] = molecular target: Polyketide synthase Pks13 (Mycobacterium tuberculosis (strain ATCC 25618 / H37Rv), UniProt I6X8D2); assay: Mycobacterium tuberculosis Polyketide synthase 13 Thioesterase (PKS13); format: functional
Polyketide synthase Pks13, sequence (I6X8D2 whole entry): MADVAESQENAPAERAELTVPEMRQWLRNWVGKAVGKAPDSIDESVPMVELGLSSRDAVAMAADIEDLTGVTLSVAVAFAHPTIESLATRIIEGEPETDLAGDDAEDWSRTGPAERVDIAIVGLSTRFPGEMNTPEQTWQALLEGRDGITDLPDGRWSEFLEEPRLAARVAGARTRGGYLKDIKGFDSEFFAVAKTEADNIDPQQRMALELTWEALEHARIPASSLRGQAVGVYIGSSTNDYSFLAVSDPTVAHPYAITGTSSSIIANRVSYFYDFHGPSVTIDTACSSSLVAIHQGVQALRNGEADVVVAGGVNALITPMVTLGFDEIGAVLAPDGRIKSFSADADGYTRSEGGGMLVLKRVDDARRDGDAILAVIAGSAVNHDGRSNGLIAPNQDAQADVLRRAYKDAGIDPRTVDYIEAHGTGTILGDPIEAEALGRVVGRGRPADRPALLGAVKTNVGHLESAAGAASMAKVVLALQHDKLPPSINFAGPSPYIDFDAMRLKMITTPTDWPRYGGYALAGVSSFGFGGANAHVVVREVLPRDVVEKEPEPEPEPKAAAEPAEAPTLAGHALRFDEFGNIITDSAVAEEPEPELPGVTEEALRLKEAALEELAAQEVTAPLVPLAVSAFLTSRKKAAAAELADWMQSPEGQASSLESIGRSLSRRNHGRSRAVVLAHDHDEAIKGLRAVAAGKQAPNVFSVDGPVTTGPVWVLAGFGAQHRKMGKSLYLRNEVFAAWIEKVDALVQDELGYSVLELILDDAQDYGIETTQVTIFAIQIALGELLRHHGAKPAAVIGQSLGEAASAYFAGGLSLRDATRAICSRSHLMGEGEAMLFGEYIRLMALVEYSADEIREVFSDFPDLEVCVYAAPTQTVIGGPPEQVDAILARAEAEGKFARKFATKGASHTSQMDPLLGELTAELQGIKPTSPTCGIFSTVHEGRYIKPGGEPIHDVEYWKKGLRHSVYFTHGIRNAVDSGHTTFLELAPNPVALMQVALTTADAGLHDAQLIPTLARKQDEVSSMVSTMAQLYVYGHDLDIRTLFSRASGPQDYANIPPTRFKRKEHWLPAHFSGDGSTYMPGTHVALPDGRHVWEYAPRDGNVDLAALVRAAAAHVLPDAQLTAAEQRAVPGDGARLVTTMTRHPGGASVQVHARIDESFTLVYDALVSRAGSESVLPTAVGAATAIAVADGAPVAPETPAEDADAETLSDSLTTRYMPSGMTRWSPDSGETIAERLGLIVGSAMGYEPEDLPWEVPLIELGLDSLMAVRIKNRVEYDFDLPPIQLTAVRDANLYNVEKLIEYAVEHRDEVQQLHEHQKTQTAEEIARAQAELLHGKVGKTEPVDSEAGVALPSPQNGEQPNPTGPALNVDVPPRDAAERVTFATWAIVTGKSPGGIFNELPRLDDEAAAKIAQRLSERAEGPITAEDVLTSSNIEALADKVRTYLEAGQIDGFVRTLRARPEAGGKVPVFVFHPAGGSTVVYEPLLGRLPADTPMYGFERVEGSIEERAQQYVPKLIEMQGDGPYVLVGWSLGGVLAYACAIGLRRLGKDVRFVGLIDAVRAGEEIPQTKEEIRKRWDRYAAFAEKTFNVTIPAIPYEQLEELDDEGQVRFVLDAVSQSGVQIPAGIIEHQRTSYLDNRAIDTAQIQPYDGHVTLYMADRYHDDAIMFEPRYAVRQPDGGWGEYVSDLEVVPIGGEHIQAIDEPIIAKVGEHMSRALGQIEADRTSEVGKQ

Histidine--tRNA ligase [2] = molecular target: T1, Histidine--tRNA ligase (Trypanosoma cruzi (strain CL Brener), UniProt Q4DA54); assay: Trypanosoma cruzi histidyl tRNA synthetase (Tc-HisRS); format: functional
T1 sequence (Q4DA54 whole entry): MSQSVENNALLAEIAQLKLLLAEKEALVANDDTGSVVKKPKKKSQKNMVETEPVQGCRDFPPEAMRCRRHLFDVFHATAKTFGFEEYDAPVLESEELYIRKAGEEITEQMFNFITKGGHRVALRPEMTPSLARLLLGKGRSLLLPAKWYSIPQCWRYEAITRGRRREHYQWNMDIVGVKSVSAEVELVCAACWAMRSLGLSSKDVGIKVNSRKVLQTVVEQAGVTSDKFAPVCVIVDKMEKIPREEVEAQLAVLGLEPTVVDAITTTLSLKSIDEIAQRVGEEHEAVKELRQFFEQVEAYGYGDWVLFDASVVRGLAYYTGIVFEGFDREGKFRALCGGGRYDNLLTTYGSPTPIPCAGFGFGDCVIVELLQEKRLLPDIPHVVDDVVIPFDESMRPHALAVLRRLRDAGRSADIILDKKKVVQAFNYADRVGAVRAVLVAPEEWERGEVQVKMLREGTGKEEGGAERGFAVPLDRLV

Histidine--tRNA ligase [3] = molecular target: T2, Histidine--tRNA ligase (Leishmania infantum, UniProt A4I591); assay: Leishmania infantum Histidine tRNA synthetase (LdHisRS); format: functional
T2 sequence (A4I591 whole entry): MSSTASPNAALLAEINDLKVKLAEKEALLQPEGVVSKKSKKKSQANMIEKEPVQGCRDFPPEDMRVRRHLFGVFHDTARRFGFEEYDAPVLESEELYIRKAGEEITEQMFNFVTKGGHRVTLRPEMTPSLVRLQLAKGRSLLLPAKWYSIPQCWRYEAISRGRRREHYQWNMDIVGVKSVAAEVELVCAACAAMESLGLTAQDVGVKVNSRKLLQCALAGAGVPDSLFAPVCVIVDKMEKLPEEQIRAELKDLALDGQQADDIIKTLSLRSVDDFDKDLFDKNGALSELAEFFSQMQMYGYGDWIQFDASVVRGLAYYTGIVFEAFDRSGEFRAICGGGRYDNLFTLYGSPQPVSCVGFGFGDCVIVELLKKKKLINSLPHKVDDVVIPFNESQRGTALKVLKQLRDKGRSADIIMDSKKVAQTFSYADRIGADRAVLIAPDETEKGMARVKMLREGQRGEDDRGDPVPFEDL

Lysine--tRNA ligase = Lysine--tRNA ligase (Plasmodium falciparum (isolate 3D7), UniProt Q8IDJ8); assay: Pf-KRS-1 (Lysyl-RNA Synthetase-1, KRS-1, cytosolic KRS) from Plasmodium falciparum. Inhibitor assay, 384 well plate, luminescence read.; format: functional
Lysine--tRNA ligase, sequence (Q8IDJ8 whole entry): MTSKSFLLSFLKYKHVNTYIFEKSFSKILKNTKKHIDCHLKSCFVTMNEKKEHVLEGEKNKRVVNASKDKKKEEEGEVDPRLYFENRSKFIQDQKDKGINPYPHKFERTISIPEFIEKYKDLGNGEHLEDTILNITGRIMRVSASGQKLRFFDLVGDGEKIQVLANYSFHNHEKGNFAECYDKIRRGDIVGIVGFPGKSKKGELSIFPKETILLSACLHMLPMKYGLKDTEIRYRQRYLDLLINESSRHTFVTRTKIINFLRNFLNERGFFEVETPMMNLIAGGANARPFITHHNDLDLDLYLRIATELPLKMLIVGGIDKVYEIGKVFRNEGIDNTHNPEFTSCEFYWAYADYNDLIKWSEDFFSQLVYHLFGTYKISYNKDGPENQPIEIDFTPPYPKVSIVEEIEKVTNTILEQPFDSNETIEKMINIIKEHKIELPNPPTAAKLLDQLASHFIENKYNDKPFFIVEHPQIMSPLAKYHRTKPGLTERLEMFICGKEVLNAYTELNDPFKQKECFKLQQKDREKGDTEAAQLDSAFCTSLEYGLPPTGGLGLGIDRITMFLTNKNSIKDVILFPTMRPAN

[4] = molecular target: T3, Coenzyme A biosynthesis bifunctional protein CoaBC (Mycobacterium tuberculosis (strain ATCC 25618 / H37Rv), UniProt P9WNZ1); assay: Biomol Green assay for MtCoaBC inhibitor, OD650 read; format: functional
T3 sequence (P9WNZ1 whole entry): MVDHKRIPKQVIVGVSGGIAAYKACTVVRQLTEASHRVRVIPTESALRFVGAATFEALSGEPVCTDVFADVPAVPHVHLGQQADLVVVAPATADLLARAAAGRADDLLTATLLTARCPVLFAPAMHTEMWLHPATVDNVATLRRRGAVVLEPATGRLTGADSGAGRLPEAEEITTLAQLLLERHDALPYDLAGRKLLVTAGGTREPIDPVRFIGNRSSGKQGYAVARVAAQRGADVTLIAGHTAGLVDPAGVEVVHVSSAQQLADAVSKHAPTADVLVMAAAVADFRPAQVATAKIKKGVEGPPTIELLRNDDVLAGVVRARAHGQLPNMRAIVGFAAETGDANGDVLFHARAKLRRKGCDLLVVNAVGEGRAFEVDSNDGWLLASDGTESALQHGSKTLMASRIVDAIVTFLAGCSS

Plasmodium falciparum = assay: Calibr Malaria Delayed Death Assay SOP; format: functional, organism-based; conditions: for IC50: Plasmodium falciparum
Trypanosoma brucei = assay: Trypanosoma brucei 72 hour study; format: functional, organism-based
[5] = microbe, parasite or virus in culture; conditions: Mycobacterium tuberculosis, 72 h, read-out: pIC50 (converted)
[6] = In vitro enzyme assay to detect hydrolysis of chlorophenol red-beta-D-[…] directly proportional to the number of Toxoplasma stably expressing beta-galactosidase; format: functional, organism-based, Toxoplasma gondii; conditions: Toxoplasma gondii

Row | SMILES | IC50 (Histidine--tRNA ligase [2]) | IC50 (Histidine--tRNA ligase [3]) | IC50 (Lysine--tRNA ligase) [µM] | other results
1 | c1ccc(N2CCOCC3(CCCN(c4nccs4)C3)C2)nc1 (centres undefined) | > 100 µM |  |  | IC50 [1]: > 100 µM
2 | Cc1cnc(N2CCC3(CCN(CC4CC4)C3=O)CC2)nc1 | > 100 µM |  |  | IC50 [1]: > 100 µM
3 | Cn1cc(NC(=O)N2CCCC2c2ccccn2)ccc1=O (centres undefined) | 9.32 µM and 9.24 µM | 2.71 µM and 1.57 µM and 2.82 µM and 1.51 µM | > 50.1 | 
4 | CCCn1cc(NC(=O)c2ccncc2)ccc1=O | 5.29 µM and 4 µM | 3.64 µM and 3.18 µM | > 50.1 | 
5 | CCCn1cc(NC(=O)c2ccc(S(=O)(=O)CC)cc2)ccc1=O | 2.37 µM and 2.75 µM | 1.47 µM and 1.05 µM and 2.81 µM and 2.06 µM | > 50.1 | 
6 | CCCn1cc(NC(=O)c2ccc(S(C)(=O)=O)cc2)ccc1=O | 21.5 µM and 19.6 µM | 1.71 µM and 0.847 µM and 0.944 µM and 1.37 µM | > 50.1 | 
7 | COc1ccc(CNC(=O)Nc2ccc(=O)n(C)c2)cc1 | 5.8 µM and 5.68 µM | 1.74 µM and 2.25 µM and 1.76 µM and 2.08 µM | > 50.1 | 
8 | Cn1cc(NC(=O)NCc2ccoc2)ccc1=O | 7.29 µM and 8.84 µM | 3.44 µM and 3.04 µM | > 50.1 | 
9 | CN(Cc1ccsc1)C(=O)Nc1ccc(=O)n(C)c1 | 4.99 µM and 3.42 µM | 4.2 µM and 4.05 µM | > 50.1 | 
10 | Cn1cc(NC(=O)NCc2ccsc2)ccc1=O | 4.72 µM and 5.06 µM | 2.07 µM and 2.41 µM and 2.32 µM and 2.42 µM | > 50.1 | 
11 | Cc1cc(=O)n(C)cc1NC(=O)NCc1cccc(F)c1 | 9.43 µM and 9.23 µM | 6.8 µM and 6.63 µM | > 50.1 | 
12 | Cc1cc(=O)n(C)cc1NC(=O)Cc1cccc(Cl)c1 | 4.77 µM | 5 µM and 6.56 µM | > 50.1 | 
13 | Cc1cc(=O)n(C)cc1NC(=O)Cc1cc(F)ccc1F | 21.1 µM | 1.69 µM and 2.09 µM and 0.814 µM and 0.806 µM | > 50.1 | 
14 | Cc1cc(=O)n(C)cc1NC(=O)Cc1cccc(F)c1 | 6.21 µM | 7.6 µM and 8.67 µM | > 50.1 | 
15 | NCC1Cc2cc(-c3nccc(N4CCC(O)CC4)n3)cc(Cl)c2O1 (centres undefined) | 48.1 µM and 22.3 µM | 20.9 µM and 21 µM |  | IC50 [4]: > 30.2 µM; pIC50 (Plasmodium falciparum): 6.303; IC50 (Plasmodium falciparum): 0.545 µM
16 | CNc1cc(-c2ccccc2CN)c2cc[nH]c2n1 | 22.6 µM and 37.8 µM | 10.6 µM and 10.1 µM |  | IC50 [4]: > 30.2 µM
17 | CN(C)c1ccc(-c2cc(C(=O)O)cc(S(=O)(=O)NC3CC3)c2)cc1 |  |  |  | pIC50 (Trypanosoma brucei): 5.904 and 6.15; IC50 (Trypanosoma brucei; Trypanosoma brucei, 72 h): 0.716 µM
18 | NCC1CCN(C2CCN(c3ccc(-c4ccco4)cc3)CC2)C1 (centres undefined) | 25.1 µM and 18.7 µM | 25.6 µM and 22.1 µM |  | IC50 [5]: 11.7 µM; pIC50 (Plasmodium falciparum): 6.504; IC50 (Plasmodium falciparum): 0.343 µM; IC50 [6]: 3.86 µM
19 | COc1cccn(CC(=O)N2CCC3(CCNCC3)C2)c1=O | 6.27 µM and 15.2 µM | 3.66 µM and 3.72 µM | > 50.1 | 
